Reference: patent US8628771B2, “CA IX-specific inhibitors” (Institute of Virology Slovak Academy of Sciences, priority 2002, dated 2014)
Where “and” joins values, the source holds several entries; their conditions need not be identical. Equal entries are not always repeated. Where two headings read alike, the source gives them in different places.

Columns and labels:
hCA IX = hCA IX (Homo sapiens, UniProt Q16790); test: CA CO2 hydrase activity assay, tumor-associated isozyme hCA IX
Procedure: An SX.18MV-R Applied Photophysics stopped-flow instrument has been used for assaying the CA CO2 hydration activity assays [44]. […] Inhibitor and enzyme solutions were preincubated together for 10 min at room temperature prior to assay, in order to allow for the formation of the E-I complex.

bCA IV = target: T1, bCA IV (Bos taurus, UniProt Q95323); test: CA esterase activity assay, isozyme bCA IV; assay type: biochemical, bovine
T1 construct: CA IV was isolated from bovine lung microsomes as described by Maren et al; from tissue; host or cells: bovine lung microsomes
T1 sequence (Q95323 19-284): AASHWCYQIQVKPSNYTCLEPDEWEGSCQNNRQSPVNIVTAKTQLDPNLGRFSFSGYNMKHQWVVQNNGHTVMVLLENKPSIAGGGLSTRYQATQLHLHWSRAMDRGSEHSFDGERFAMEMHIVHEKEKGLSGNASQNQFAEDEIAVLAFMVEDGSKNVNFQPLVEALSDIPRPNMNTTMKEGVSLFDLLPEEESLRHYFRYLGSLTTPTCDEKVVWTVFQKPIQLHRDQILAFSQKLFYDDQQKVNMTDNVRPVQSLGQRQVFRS

hCA II = target: T2, hCA II (Homo sapiens, UniProt P00918); test: CA esterase activity assay, isozyme hCA II; assay type: biochemical
T2 construct: made in house; host or cells: Escherichia coli BL21 (DE3)

hCA I = target: T3, hCA I (Homo sapiens, UniProt P00915); test: CA esterase activity assay, isozyme hCA I; assay type: biochemical
T3 construct: made in house; host or cells: Escherichia coli BL21 (DE3)
T3 sequence (P00915 whole entry): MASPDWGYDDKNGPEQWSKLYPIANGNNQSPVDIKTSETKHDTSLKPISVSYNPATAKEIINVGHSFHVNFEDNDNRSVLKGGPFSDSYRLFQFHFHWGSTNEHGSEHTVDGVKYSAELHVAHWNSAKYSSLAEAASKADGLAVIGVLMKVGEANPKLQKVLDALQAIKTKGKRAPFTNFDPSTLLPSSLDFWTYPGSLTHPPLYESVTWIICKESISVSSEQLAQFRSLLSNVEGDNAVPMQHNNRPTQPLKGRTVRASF
Procedure: Human CA I and CA II cDNAs were expressed in Escherichia coli strain BL21 (DE3) from the plasmids pACA/hCA I and pACA/hCA II described by Lindskog's group [54].
Non-enzymatic hydrolysis rates were always subtracted from the observed rates. […] Inhibitor and enzyme solutions were preincubated together for 10 min at room temperature prior to assay, in order to allow for the formation of the E-I complex. The inhibition constant KI was determined as described in references [44, 76].

[1] = read-out: KI hCA IX, Table 1, human cloned isozyme, CO2 hydrase assay method
[2] = Table 1, isolated from bovine lung microsomes, esterase assay method, read-out: KI bCA IV
[3] = Table 2, human (cloned) isozymes, read-out: KI hCA II
[4] = Table 2, from bovine lung microsomes, read-out: KI bCA IV
[5] = read-out: KI hCA IX, Table 2, catalytic domain of the human, cloned isozyme
[6] = Table 2, human (cloned) isozymes, read-out: KI hCA I
[7] = Table 3, human (cloned) isozymes, esterase assay method, read-out: KI hCA II
[8] = Table 3, from bovine lung microsomes, esterase assay method, read-out: KI bCA IV
[9] = KI against CA IX, text discussion of Tables 1-3
[10] = read-out: KI hCA IX, Table 3, catalytic domain of the human, cloned isozyme, CO2 hydrase assay method
[11] = Table 3, human (cloned) isozymes, esterase assay method, read-out: KI hCA I
[12] = Table 3, read-out: KI against CA I
[13] = Tables 1 and 3, read-out: KI against CA II

For NS(=O)(=O)c1ccc(CO)cc1 [Compound 24], the Ki (hCA IX; [1]) was 21 nM.
Nc1ccc(S(=O)(=O)NCCc2ccc(S(N)(=O)=O)cc2)cc1 [Compound 19] showed a Ki (bCA IV; [2]) of 72 nM and a Ki (hCA IX; [1]) of 24 nM.
Compound Cc1cc(C)[n+](-c2ccc(S(N)(=O)=O)cc2)c(C)c1 [Compound 27] has a Ki (hCA II; [3]) of 150 nM, a Ki (bCA IV; [4]) of 290 nM and a Ki (hCA IX) of 160 to 450 nM. For the same compound, the Ki (hCA IX; [5]) was 165 nM and the Ki (hCA I; [6]) was 10000 nM.
For CCCc1cc(-c2ccccc2)cc(-c2ccccc2)[n+]1-c1ccc(S(N)(=O)=O)cc1 [Compound 34], the Ki (hCA II; [3]) was 580 nM, the Ki (bCA IV; [4]) was 1480 nM and the Ki (hCA I; [6]) was 140000 nM.
In the case of CCCCc1cc(-c2ccccc2)cc(-c2ccccc2)[n+]1CCc1ccc(S(N)(=O)=O)cc1 [Compound 66], the Ki (hCA II; [3]) is reported as 544 nM, the Ki (bCA IV; [4]) is reported as 2010 nM and the Ki (hCA IX; [5]) is reported as 120 nM. The Ki (hCA I; [6]) was 290000 nM.
Work on NS(=O)(=O)c1ccc(C(=O)O)cc1 [Compound 26] yielded a Ki (bCA IV; [2]) of 86 nM and a Ki (hCA IX; [1]) of 26 nM.
CCc1cc(-c2ccccc2)cc(-c2ccccc2)[n+]1-c1ccc(S(=O)(=O)Nc2nnc(S(N)(=O)=O)s2)cc1 [Compound 81, 1-N-[5-Sulfamoyl-1,3,4-thiadiazol-2-yl-(aminosulfonyl-4-phenyl)]-2-ethyl-4,6-diphenylpyridinium perchlorate] was tested, and the Ki (hCA II; [7]) was 1.14 nM, the Ki (hCA II; read-out: KI against CA II) was 0.2 to 1.61 nM and the Ki (bCA IV; [8]) was 3.8 nM. The Ki (hCA IX; [9]) was 12 to 35 nM, the Ki (hCA IX; [10]) was 29 nM and the Ki (hCA I; [11]) was 5 nM.
With Cc1cc(C)[n+](CCc2ccc(S(N)(=O)=O)cc2)c(C(C)C)c1 [Compound 56] the Ki (hCA II; [3]) was 15 nM, the Ki (bCA IV; [4]) was 32 nM and the Ki (hCA IX; [5]) was 31 nM. For the same compound, the Ki (hCA I; [6]) was 2000 nM.
Nc1ccc(S(N)(=O)=O)cc1Cl [Compound 8] showed a Ki (hCA IX; [1]) of 264 nM.
Cc1cc(-c2ccccc2)cc(C)[n+]1-c1ccc(S(=O)(=O)Nc2nnc(S(N)(=O)=O)s2)cc1 [Compound 75, 1-N-[5-Sulfamoyl-1,3,4-thiadiazol-2-yl-(aminosulfonyl-4-phenyl)]-2,6-dimethyl-4-phenylpyridinium perchlorate] showed a Ki (hCA II; [7]) of 0.2 nM, a Ki (hCA II; read-out: KI against CA II) of 0.2 to 1.61 nM and a Ki (bCA IV; [8]) of 2 nM. It also gave a Ki (hCA IX; [9]) of 3 to 9 nM, a Ki (hCA IX; [10]) of 6 nM and a Ki (hCA I; [12]) of 3 nM.
For CCCc1cc(-c2ccccc2)cc(CCC)[n+]1-c1ccc(S(=O)(=O)Nc2nnc(S(N)(=O)=O)s2)cc1 [Compound 77, 1-N-[5-Sulfamoyl-1,3,4-thiadiazol-2-yl-(aminosulfonyl-4-phenyl)]-2,6-di-n-propyl-4-phenylpyridinium perchlorate], the Ki (hCA II; [7]) was 3.45 nM, the Ki (hCA II; [13]) was 3.13 to 5.96 nM and the Ki (bCA IV; [8]) was 8.1 nM. The Ki (bCA IV; Table 3, read-out: KI against CA IV) was 5.2 to 10.3 nM, the Ki (hCA IX) was 12 to 35 nM and the Ki (hCA IX; [10]) was 35 nM. The Ki (hCA I; [11]) was 9 nM and the Ki (hCA I; [12]) was 7 to 12 nM.
Cc1cc(-c2ccccc2)cc(C)[n+]1Cc1ccc(S(N)(=O)=O)cc1 [Compound 42] showed a Ki (bCA IV; [4]) of 70 nM, a Ki (hCA IX; [5]) of 26 nM and a Ki (hCA I; [6]) of 4000 nM.
Compound Nc1ccccc1S(N)(=O)=O [Compound 1] has a Ki (bCA IV; [2]) of 1310 nM and a Ki (hCA IX; [1]) of 33 nM.
With Cc1cc(C)[n+](-c2ccc(S(=O)(=O)Nc3nnc(S(N)(=O)=O)s3)cc2)c(C(C)C)c1 [Compound 72, 1-N-[5-Sulfamoyl-1,3,4-thiadiazol-2-yl-(aminosulfonyl-4-phenyl)]-2-iso-propyl-4,6-dimethylpyridinium perchlorate] the Ki (hCA II; [7]) was 0.39 nM, the Ki (hCA II; [13]) was 0.2 to 1.61 nM and the Ki (bCA IV; [8]) was 3 nM. It also gave a Ki (hCA IX) of 3 to 9 nM, a Ki (hCA IX; [10]) of 5 nM and a Ki (hCA I; [11]) of 4 nM.
In the case of NS(=O)(=O)c1ccc(S(=O)(=O)Nc2cccc3c(Cl)c[nH]c23)cc1 [indisulam, reference compound], the Ki (bCA IV; [4]) is reported as 65 nM and the Ki (bCA IV; [8]) is reported as 65 nM.
CC(C)(C)c1cc(-c2ccccc2)cc(-c2ccccc2)[n+]1CCc1ccc(S(N)(=O)=O)cc1 [Compound 67] showed a Ki (hCA II; [3]) of 275 nM, a Ki (bCA IV; [4]) of 1000 nM and a Ki (hCA I; [6]) of 92000 nM.
Cc1cc(C)[n+](Cc2ccc(S(N)(=O)=O)cc2)c(C)c1C [Compound 54] showed a Ki (hCA II; read-out: KI hCA II) of 30 nM, a Ki (bCA IV; [4]) of 51 nM and a Ki (hCA IX; [9]) of 6 to 54 nM. The Ki (hCA IX; [5]) was 35 nM and the Ki (hCA I; [6]) was 3000 nM.
For Nc1ccc(S(N)(=O)=O)cc1Br [Compound 9], the Ki (bCA IV; [2]) was 66 nM.
For Cc1cc(C)[n+](CCc2ccc(S(N)(=O)=O)cc2)c(C)c1C [Compound 70], the Ki (hCA II; [3]) was 10 nM, the Ki (bCA IV; [4]) was 21 nM and the Ki (hCA IX; [9]) was 6 to 54 nM and < 10 nM. It also gave a Ki (hCA IX; [5]) of 8 nM and a Ki (hCA I; [6]) of 2000 nM.
Work on NS(=O)(=O)c1cccc2cccnc12 [Compound 22] yielded a Ki (bCA IV; [2]) of 415 nM and a Ki (hCA IX; [1]) of 32 nM.
CCc1cc(-c2ccccc2)cc(-c2ccccc2)[n+]1CCc1ccc(S(N)(=O)=O)cc1 [Compound 63] showed a Ki (hCA II; [3]) of 220 nM, a Ki (hCA IX; [5]) of 70 nM and a Ki (hCA I; [6]) of 40000 nM.
CCCc1cc(-c2ccccc2)cc(CCC)[n+]1Cc1ccc(S(N)(=O)=O)cc1 [Compound 44] showed a Ki (hCA II; [3]) of 90 nM, a Ki (bCA IV; [4]) of 163 nM and a Ki (hCA IX) of 160 to 450 nM. The Ki (hCA IX; [5]) was 230 nM and the Ki (hCA I; [6]) was 24000 nM.
With NCc1ccc(S(N)(=O)=O)cc1 [Compound 5, homosulfanilamide] the Ki (hCA IX; read-out: KI hCA IX) was 103 nM.
In the case of NNc1ccc(S(N)(=O)=O)cc1 [Compound 4, 4-hydrazino-benzenesulfonamide], the Ki (bCA IV; [2]) is reported as 3220 nM and the Ki (hCA I; Table 1, human cloned isozymes, esterase assay method, read-out: KI hAC I) is reported as 78500 nM.
